Laboratory results from patent US6737383B1, “Herbicidal oxadiazolidines” (priority 1999, dated 2004).

What was measured:
duck salad = assay: Test B flood test duck salad; type: in vivo, Heteranthera limosa
Procedure, shortened: (§1)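 Read-out is a visual response score from 0 (no effect) to 10 (complete control), assigned by comparison with untreated controls. Treatment was applied at the 2-leaf stage, and plants stayed in the greenhouse for twelve to sixteen days before scoring.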

pigweed = assay: Test B pre/postemergence pigweed; type: in vivo, Amaranthus retroflexus
Procedure, shortened: (§2)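 Herbicidal effect was estimated by eye on a ten-point control scale after plants spent twelve to sixteen days in a greenhouse following soil or foliar treatment. Foliar sprays targeted plants at one to four leaves; all doses were formulated in a non-phytotoxic solvent with surfactant.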

wheat = assay: Test B pre/postemergence wheat; type: in vivo, Triticum aestivum
Procedure, shortened: as §2

blackgrass = assay: Test B pre/postemergence blackgrass; type: in vivo, Alopecurus myosuroides
Procedure, shortened: as §2

bedstraw = assay: Test B pre/postemergence bedstraw; type: in vivo, Galium aparine; conditions: Preemergence
Procedure, shortened: as §2

crabgrass = assay: Test B pre/postemergence crabgrass; type: in vivo, Digitaria sanguinalis
Procedure, shortened: as §2

wild oat = assay: Test B pre/postemergence wild oat; type: in vivo, Avena fatua
Procedure, shortened: as §2

surinam grass = assay: Test B pre/postemergence surinam grass; type: in vivo, Brachiaria decumbens
Procedure, shortened: as §2

velvetleaf = assay: Test B pre/postemergence velvetleaf; type: in vivo, Abutilon theophrasti
Procedure, shortened: as §2

purple nutsedge = assay: Test B pre/postemergence purple nutsedge; type: in vivo, Cyperus rotundus
Procedure, shortened: as §2

soybean = assay: Test B pre/postemergence soybean; type: in vivo, Glycine max
Procedure, shortened: as §2

corn = assay: Test B pre/postemergence corn; type: in vivo, Zea mays
Procedure, shortened: as §2

morningglory = assay: Test B pre/postemergence morningglory; type: in vivo, Ipomoea hederacea
Procedure, shortened: as §2

smallflower flatsedge = assay: Test B flood test smallflower flatsedge; type: in vivo, Cyperus difformis
Procedure, shortened: as §1

giant foxtail = assay: Test B pre/postemergence giant foxtail; type: in vivo, Setaria faberii
Procedure, shortened: as §2

rice = assay: Test B flood test rice; type: in vivo, Oryza sativa
Procedure, shortened: as §1

[1] = Rate 62 g/ha, flood test species, Pre-emergence, visual evaluation after twelve to sixteen days
[2] = Rate 125 g/ha, under heading Pre-emergence, flood test species, visual evaluation after twelve to sixteen days
[3] = Rate 250 g/ha, Pre-emergence (flood test species), scale 0 to 10, 0 is no effect, 10 is complete control
[4] = Rate 500 g/ha, Pre-emergence section of Table B, 0 to 10 scale (0 no effect, 10 complete control)
[5] = Postemergence, Rate 62 g/ha, scale 0 to 10, 0 is no effect, 10 is complete control
[6] = Postemergence, Rate 125 g/ha, scale of 0 to 10 where 0 is no effect and 10 is complete control
[7] = Postemergence, Rate 250 g/ha, scale of 0 to 10, 0 is no effect, 10 is complete control
[8] = Preemergence, Rate 62 g/ha, scale 0 to 10 (0 no effect, 10 complete control)
[9] = Preemergence, Rate 125 g/ha, scale of 0 to 10 where 0 is no effect and 10 is complete control
[10] = Preemergence, Rate 250 g/ha, scale 0 to 10 (0 no effect, 10 complete control)
[11] = Preemergence, Rate 500 g/ha, scale of 0 to 10 where 0 is no effect and 10 is complete control
[12] = Postemergence, Rate 500 g/ha, scale of 0 to 10 where 0 is no effect and 10 is complete control

SMILES: CC(C)N(C(=O)n1oc(=O)n(CSC#N)c1=O)c1ccc(F)cc1 [Compound 618]
- Plant response rating, Ducksalad (0 to 10 scale, 0 is no effect, 10 is complete control) (duck salad; [1]): 0
- Ducksalad plant response rating (0 to 10 scale, 0 is no effect, 10 is complete control) (duck salad; [2]): 0
- Ducksalad plant response rating (duck salad; [3]): 0
- Ducksalad plant response rating (duck salad; [4]): 0
- Plant response rating, Redroot pigweed (pigweed; [5]): 0
- Plant response rating, Redroot pigweed (pigweed; [6]): 0
- Redroot pigweed plant response rating (pigweed; [7]): 0
- Redroot pigweed plant response rating (pigweed; [8]): 0
- Redroot pigweed plant response rating (pigweed; [9]): 0
- Plant response rating, Redroot pigweed (pigweed; [10]): 0
- Plant response rating, Redroot pigweed (pigweed; [11]): 0
- Plant response rating, Wheat (wheat; [5]): 0
- Plant response rating, Wheat (wheat; [6]): 0
- Wheat plant response rating (wheat; [7]): 0
- Wheat plant response rating (wheat; [8]): 0
- Wheat plant response rating (wheat; [9]): 0
- Plant response rating, Wheat (wheat; [10]): 0
- Plant response rating, Wheat (wheat; [11]): 0
- Plant response rating, Blackgrass (blackgrass; [5]): 0
- Plant response rating, Blackgrass (blackgrass; [6]): 0
- Blackgrass plant response rating (blackgrass; [7]): 0
- Plant response rating, Blackgrass (blackgrass; [12]): 0
- Blackgrass plant response rating (blackgrass; [8]): 0
- Blackgrass plant response rating (blackgrass; [9]): 0
- Plant response rating, Blackgrass (blackgrass; [10]): 0
- Blackgrass plant response rating (blackgrass; [11]): 0
- Bedstraw plant response rating (bedstraw; Rate 62 g/ha, scale 0 to 10 (0 no effect, 10 complete control)): 0
- Bedstraw plant response rating (bedstraw; Rate 125 g/ha, scale of 0 to 10 where 0 is no effect and 10 is complete control): 0
- Plant response rating, Bedstraw (bedstraw; Rate 250 g/ha, scale 0 to 10 (0 no effect, 10 complete control)): 0
- Bedstraw plant response rating (bedstraw; Rate 500 g/ha, scale of 0 to 10 where 0 is no effect and 10 is complete control): 0
- Plant response rating, Crabgrass (crabgrass; [5]): 0
- Plant response rating, Crabgrass (crabgrass; [6]): 0
- Crabgrass plant response rating (crabgrass; [7]): 0
- Plant response rating, Crabgrass (crabgrass; [12]): 0
- Crabgrass plant response rating (crabgrass; [8]): 0
- Crabgrass plant response rating (crabgrass; [9]): 0
- Plant response rating, Crabgrass (crabgrass; [10]): 0
- Plant response rating, Crabgrass (crabgrass; [11]): 2
- Plant response rating, Wild oats (wild oat; [5]): 0
- Plant response rating, Wild oats (wild oat; [6]): 0
- Wild oats plant response rating (wild oat; [7]): 0
- Wild oats plant response rating (wild oat; [8]): 0
- Wild oats plant response rating (wild oat; [9]): 0
- Plant response rating, Wild oats (wild oat; [10]): 0
- Plant response rating, Wild oats (wild oat; [11]): 0
- Plant response rating, B. signalgrass (surinam grass; [5]): 0
- Plant response rating, B. signalgrass (surinam grass; [6]): 0
- B. signalgrass plant response rating (surinam grass; [7]): 0
- Plant response rating, B. signalgrass (surinam grass; [12]): 0
- B. signalgrass plant response rating (surinam grass; [8]): 0
- B. signalgrass plant response rating (surinam grass; [9]): 0
- Plant response rating, B. signalgrass (surinam grass; [10]): 0
- B. signalgrass plant response rating (surinam grass; [11]): 0
- Plant response rating, Velvetleaf (velvetleaf; [5]): 0
- Plant response rating, Velvetleaf (velvetleaf; [6]): 0
- Velvetleaf plant response rating (velvetleaf; [7]): 0
- Velvetleaf plant response rating (velvetleaf; [8]): 0
- Velvetleaf plant response rating (velvetleaf; [9]): 0
- Plant response rating, Velvetleaf (velvetleaf; [10]): 0
- Plant response rating, Velvetleaf (velvetleaf; [11]): 0
- Plant response rating, Nutsedge (purple nutsedge; [5]): 0
- Plant response rating, Nutsedge (purple nutsedge; [6]): 0
- Nutsedge plant response rating (purple nutsedge; [7]): 0
- Nutsedge plant response rating (purple nutsedge; [9]): 0
- Plant response rating, Nutsedge (purple nutsedge; [11]): 0
- Plant response rating, Soybean (soybean; [5]): 0
- Plant response rating, Soybean (soybean; [6]): 0
- Soybean plant response rating (soybean; [7]): 6
- Soybean plant response rating (soybean; [8]): 0
- Soybean plant response rating (soybean; [9]): 0
- Plant response rating, Soybean (soybean; [10]): 0
- Plant response rating, Soybean (soybean; [11]): 0
- Plant response rating, Corn (corn; [5]): 0
- Plant response rating, Corn (corn; [6]): 0
- Corn plant response rating (corn; [7]): 0
- Plant response rating, Corn (corn; [12]): 0
- Corn plant response rating (corn; [8]): 0
- Corn plant response rating (corn; [9]): 0
- Plant response rating, Corn (corn; [10]): 0
- Plant response rating, Corn (corn; [11]): 0
- Plant response rating, Morningglory (morningglory; [5]): 0
- Plant response rating, Morningglory (morningglory; [6]): 0
- Morningglory plant response rating (morningglory; [7]): 0
- Plant response rating, Morningglory (morningglory; [12]): 0
- Morningglory plant response rating (morningglory; [8]): 0
- Morningglory plant response rating (morningglory; [9]): 0
- Plant response rating, Morningglory (morningglory; [10]): 0
- Plant response rating, Morningglory (morningglory; [11]): 0
- Plant response rating, S. Flatsedge (0 to 10 scale, 0 is no effect, 10 is complete control) (smallflower flatsedge; [1]): 0
- S. Flatsedge plant response rating (0 to 10 scale, 0 is no effect, 10 is complete control) (smallflower flatsedge; [2]): 0
- S. Flatsedge plant response rating (smallflower flatsedge; [3]): 0
- S. Flatsedge plant response rating (smallflower flatsedge; [4]): 0
- Plant response rating, Giant foxtail (giant foxtail; [5]): 0
- Plant response rating, Giant foxtail (giant foxtail; [6]): 0
- Giant foxtail plant response rating (giant foxtail; [7]): 0
- Plant response rating, Giant foxtail (giant foxtail; [12]): 0
- Giant foxtail plant response rating (giant foxtail; [8]): 2
- Giant foxtail plant response rating (giant foxtail; [9]): 2
- Plant response rating, Giant foxtail (giant foxtail; [10]): 2
- Plant response rating, Giant foxtail (giant foxtail; [11]): 0
- Plant response rating, Rice (0 to 10 scale, 0 is no effect, 10 is complete control) (rice; [1]): 0
- Rice plant response rating (0 to 10 scale, 0 is no effect, 10 is complete control) (rice; [2]): 0
- Rice plant response rating (rice; [3]): 0
- Rice plant response rating (rice; [4]): 0
